Here are results for 1 compound from patent US20260224542A1, “PHARMACEUTICAL COMPOSITION CONTAINING ß-LACTAMASE INHIBITOR AND USE THEREOF” (priority 2023, published 2026).

Data set [1] in a line: Solubility of Compound 1 incubated for 24 h at 25° C. (Example 6). In kind it is physicochemical. The protocol: The solubilization effect of sodium sulfobutylether-β-cyclodextrin (SBECD) and hydroxypropyl-β-cyclodextrin (HP-β-CD) on Compound 1 was investigated by taking the solubility in 50 mM pH 4.5 acetate buffer medium and water as a reference.
In the art, surfactants may also be used for solubilization. To further improve the solubility of Compound 1, a surfactant was added on the basis of SBECD to investigate the solubility.

Data set [2] deals with Klebsiella pneumoniae AR0113. The experiment in a line: Neutropenic mouse thigh infection, imipenem + Compound 1 dose ratios (Example 4). The following applies: Compound 1 total 96 mg/kg; 9 h after inoculation. Format: in vivo. The protocol:
(§1) The overnight cultures are washed twice with phosphate buffer solution (PBS) and adjusted to the optimal concentration in PBS.
(§2) For intravenous (IV) administration, the solution of Compound 1 is prepared using a Captisol vehicle, which is 25 mM acetate buffer (prepared with sodium acetate trihydrate) containing 10% w/v Captisol. The pH is adjusted to 5.0 with 2N acetic acid solution. A desired volume of buffer is added to the weighed sample, the desired concentration of Compound 1 is prepared in the buffer, which is then ultrasonically heated in a water bath until a clear solution was obtained. The administrated volume of Compound 1 is 5 mL/kg.
(§3) For subcutaneous (SC) administration, an imipenem solution or imipenem-cilastatin solution is prepared in sterile PBS by using imipenem monohydrate or imipenem monohydrate and cilastatin sodium. The desired concentration of imipenem is prepared by adding PBS to the solid powder, then sonicating the mixture in a water bath until a clear solution is obtained, and the administrated volume is 10 mL/kg.
(§4) The mice were divided into 16 groups, with 5 mice in each group. […]
(§5) For the […] Group 1 (control group) above, animals were euthanized with an overdose of sodium pentobarbital 1 hour after inoculation. As described above, bilateral thighs were dissected and quantitatively cultured for use as final samples.

The test system of data set [3] is Pseudomonas aeruginosa ACC00680. The experiment in a line: Neutropenic mouse thigh infection, imipenem + cilastatin + Compound 1 dose ratios (Example 2). In kind it is in vivo. The note with it: Compound 1 total 96 mg/kg IV; 9 h after inoculation. Here is the method: as §1, §2, §3, §4, §5
Data set [4] relates to Acinetobacter baumannii AR0274. The experiment in a line: Neutropenic mouse thigh infection, imipenem + Compound 1 dose ratios (Example 3). Format: in vivo. The note with it: Compound 1 total 96 mg/kg IV; 9 h after inoculation. The protocol:
as §1, §2, §3, §4, §5

Data set [5] has as its system Pseudomonas aeruginosa ACC00680. The experiment in a line: Neutropenic mouse thigh infection, imipenem + Compound 1 dose ratios (Example 1). In kind it is in vivo. The following applies: 9 h after inoculation. Here is the method:
as §1, §2, §3
The mice were divided into 15 groups, with 5 mice in each group. The test was carried out following the above steps, the concentration of the bacterial solution of Pseudomonas aeruginosa ACC00680 was 1.83×10^5 colony forming unit (CFU) per gram of thigh tissues, and the administration was conducted according to the scheme in the table below.
For Groups 2 to 15 above, animals were euthanized 9 hours after inoculation using an overdose of sodium pentobarbital, followed by confirmation of death by cervical dislocation.
as §5

In brackets after ≈: the same amount, converted by molar mass.

In general, solubility refers to the dissolved amount per volume that the medium holds. Low values mean a poorly soluble substance, high ones a readily soluble substance. As for `N=C1NC[C@@H](c2nnc([C@@H]3CC4(CC4)[C@@H]4CN3C(=O)N4OS(=O)(=O)O)o2)N1` [Compound 1], the “effect of surfactant added on the basis of SBECD on solubility” value in data set [1] (SBECD 10% plus surfactant) was “failed to significantly improve the solubility”. In data set [1] (water, background statement, conditions not stated), this compound displayed a solubility of 600 µg/mL (≈ 1500 µM). The “Group geometric mean (CFU/g)” value in data set [2] is on record as 2.06 × 10^7 CFU/g; in data set [3] it was 3.21 × 10^7 CFU/g; in data set [4], 1.89 × 10^7 CFU/g; in data set [5] (Compound 1 total 50 mg/kg IV), 4.63 × 10^5 CFU/g; in data set [5] (Compound 1 total 75 mg/kg IV) it was 1.93 × 10^6 CFU/g; in data set [5] (Compound 1 total 100 mg/kg IV), 4.52 × 10^6 CFU/g.
